Laboratory results: patent publication US12679836B2, “4H-pyrrolo[3,2-c]pyridin-4-one compounds” (Bayer Aktiengesellschaft, priority 2019, dated 2026)

How the values were obtained:
Ba/F3-EGFR-insSVD cells = Ba/F3-EGFR-insSVD cells (Homo sapiens, UniProt P00533, DUP768-770, cells depend on it); assay: Ba/F3 cell survival assay (Cell Titer-Glo), EGFR-insSVD; assay type: cell-based; details: without IL-3, with 10 ng/mL EGF, 48 h; read-out: BA/F3 (insSVD) IC50
Procedure, shortened: (§1)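 Ba/F3 cells stably expressing WT EGFR or EGFR-insSVD from retroviral transduction were grown without IL-3 on 10 ng/mL EGF. Cells were plated at 4000 cells/well, treated with compound for 48 h at 37° C, and viability was read by CellTiter-Glo luminescence.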

[1] = biological target: T1, EGFR with insertion of SVD between D770 and N771 (EGFR ins SVD) (Homo sapiens, UniProt P00533, DUP768-770); assay: Exon20-Mutant-EGFR(D770_N771insSVD) kinase assay (TR-FRET); assay type: biochemical; details: 2 mM ATP, several values per example where printed
T1 construct: made in house; host or cells: Sf9 insect cells (baculovirus)
T1 sequence (P00533 with tags, fused parts or gaps DUP768-770): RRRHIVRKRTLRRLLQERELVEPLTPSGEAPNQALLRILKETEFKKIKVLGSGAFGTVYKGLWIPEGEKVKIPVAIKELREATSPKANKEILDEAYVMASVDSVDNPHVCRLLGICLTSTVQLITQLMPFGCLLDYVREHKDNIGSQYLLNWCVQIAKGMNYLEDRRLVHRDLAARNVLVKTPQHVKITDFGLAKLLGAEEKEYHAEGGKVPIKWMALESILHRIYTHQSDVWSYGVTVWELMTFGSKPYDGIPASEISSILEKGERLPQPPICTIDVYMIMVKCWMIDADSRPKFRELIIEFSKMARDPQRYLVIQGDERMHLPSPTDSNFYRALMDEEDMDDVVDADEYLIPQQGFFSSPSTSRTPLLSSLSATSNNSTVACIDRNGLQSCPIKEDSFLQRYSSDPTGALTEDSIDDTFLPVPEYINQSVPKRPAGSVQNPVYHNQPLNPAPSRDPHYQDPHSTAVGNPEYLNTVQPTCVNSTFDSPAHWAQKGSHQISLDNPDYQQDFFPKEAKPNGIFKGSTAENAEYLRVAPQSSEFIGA

Ba/F3-EGFR L861Q cells = Ba/F3-EGFR L861Q cells (Homo sapiens, UniProt P00533, L861Q, cells depend on it); assay: Ba/F3 cell survival assay, EGFR L861Q; assay type: cell-based; details: without IL-3, without EGF, 48 h; read-out: BA/F3 (EGFR L861Q) IC50
Protocol: (§2) 293T cells from ATCC were transfected with pBABEpuro expression constructs for mutant EGFR (V769_D770insASV, D770_N771insNPG, N771_P772insH, H773_V774insNPH, E746_A750del, L858R, D770_N771insSVD C797S, E746_A750del C797S, L858R C797S, L861Q) or mutant ERBB2 (A775_G776insYVMA) and pCL-Eco packaging vector using Fugene-6 transfection reagent from Promega. Plates were incubated at 37° C. for 48 h. Retrovirus was harvested by filtering the media supernatant through a 0.45 μm filter.
(§3) Ba/F3 cells purchased from DSMZ were grown in RPMI+10% FBS+10 ng/mL IL-3 and infected with filtered retroviral supernatant at a 1:2 dilution. Polybrene was added to a concentration of 8 μg/mL, plates were spun for 90 min, and incubated overnight at 37° C. 2 μg/mL puromycin was added to the infected cells 24 h after infection and cells were continually grown in the presence of puromycin and 10 ng/mL IL-3. Following stably expressing Ba/F3 cell lines were generated: Ba/F3-EGFR-V769_D770insASV, Ba/F3-EGFR-D770_N771insNPG, Ba/F3-EGFR-N771_P772insH, Ba/F3-EGFR-H773_V774insNPH, Ba/F3-EGFR-E746_A750del, Ba/F3-EGFR-L858R, Ba/F3-EGFR-D770_N771 insSVD C797S, Ba/F3-EGFR-E746_A750del C797S, Ba/F3-EGFR-L858R C797S, Ba/F3-EGFR L861Q and Ba/F3-ERBB2-A775_G776insYVMA (Ba/F3-vector-control).
(§4) For cell survival assays, Ba/F3 cells were grown to a density of 1-2 million cells per mL, spun down and resuspended in media without IL-3, and replated at a concentration 200,000-500,000 cells per mL. The cells ectopically expressing WT EGFR plated with 10 ng/mL Millipore Culture grade EGF and Ba/F3 cells containing mutant EGFR or Mutant ERBB2 were cultivated without EGF. The cells ectopically expressing pBABEpuro empty vector were plated with 10 ng/mL IL-3.
(§5) 2 days later, cells were plated in 50 μL in a 384 well plate at a concentration of 4000 cells per well for cells assayed in the absence of IL-3 and 2000 cells per well for cells assayed in the presence of IL-3. 100 nL of compound was added to each well using a 100 nL pin head, and plates were incubated at 37° C. for 48 h.
(§6) Cell viability was measured by adding 20 μL of Cell Titer-Glo Luminescent Cell Viability Reagent diluted 1:3 in PBS. Plates were sealed with Perkin Elmer Top-Seal, inverted several times to mix, and immediately centrifuged at 1000 rpm for 2 min. Plates were incubated in low light conditions for 8-10 min and luminescence was measured.

Ba/F3-EGFR-L858R cells = Ba/F3-EGFR-L858R cells (Homo sapiens, UniProt P00533, L858R, cells depend on it); assay: Ba/F3 cell survival assay, EGFR L858R; assay type: cell-based; details: without IL-3, without EGF, 48 h; read-out: BA/F3 (EGFR L858R) IC50
Protocol: as §2, §3, §4, §5, §6

Bub1 = biological target: T2, Bub1 (Homo sapiens, UniProt O43683); assay: Bub1 TR-FRET high ATP kinase assay; assay type: biochemical; details: Bub1 high ATP (2 mM) IC50 [mol/l], 2 mM ATP
T2 construct: catalytic domain of human Bub1 (amino acids 704-1085); His6 (N); made in house; host or cells: Hi5 insect cells
T2 sequence (O43683 704-1085): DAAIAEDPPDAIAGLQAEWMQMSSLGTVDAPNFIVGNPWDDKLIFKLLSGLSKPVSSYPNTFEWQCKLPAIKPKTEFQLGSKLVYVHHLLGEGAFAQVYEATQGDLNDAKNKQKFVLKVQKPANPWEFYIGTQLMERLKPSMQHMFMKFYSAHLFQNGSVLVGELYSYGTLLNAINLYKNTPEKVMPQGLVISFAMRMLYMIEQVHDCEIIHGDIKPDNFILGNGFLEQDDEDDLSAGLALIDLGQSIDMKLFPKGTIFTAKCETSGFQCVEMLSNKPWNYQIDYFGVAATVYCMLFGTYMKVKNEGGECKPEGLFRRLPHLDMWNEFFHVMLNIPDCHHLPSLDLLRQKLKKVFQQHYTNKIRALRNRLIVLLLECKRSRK
Procedure, shortened: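 Recombinant His6-tagged human Bub1 catalytic domain (aa 704-1085), from Hi5 insect cells, phosphorylating a biotinylated peptide substrate at high ATP concentration. TR-FRET read-out.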

[2] = biological target: Ba/F3-EGFR-E746_A750del cells (Homo sapiens, UniProt P00533, DEL746-750, cells depend on it); assay: Ba/F3 cell survival assay, EGFR E746_A750del; assay type: cell-based; details: without IL-3, without EGF, 48 h; read-out: BA/F3 (EGFR E746_A750del) IC50
Protocol: as §2, §3, §4, §5, §6

Ba/F3-EGFR-WT cells = Ba/F3-EGFR-WT cells (Homo sapiens, UniProt P00533); assay: Ba/F3 cell survival assay (Cell Titer-Glo), WT EGFR; assay type: cell-based; details: without IL-3, with 10 ng/mL EGF, 48 h; read-out: BA/F3 (wild type) IC50
Ba/F3-EGFR-WT cells, sequence (P00533 whole entry, change not shown): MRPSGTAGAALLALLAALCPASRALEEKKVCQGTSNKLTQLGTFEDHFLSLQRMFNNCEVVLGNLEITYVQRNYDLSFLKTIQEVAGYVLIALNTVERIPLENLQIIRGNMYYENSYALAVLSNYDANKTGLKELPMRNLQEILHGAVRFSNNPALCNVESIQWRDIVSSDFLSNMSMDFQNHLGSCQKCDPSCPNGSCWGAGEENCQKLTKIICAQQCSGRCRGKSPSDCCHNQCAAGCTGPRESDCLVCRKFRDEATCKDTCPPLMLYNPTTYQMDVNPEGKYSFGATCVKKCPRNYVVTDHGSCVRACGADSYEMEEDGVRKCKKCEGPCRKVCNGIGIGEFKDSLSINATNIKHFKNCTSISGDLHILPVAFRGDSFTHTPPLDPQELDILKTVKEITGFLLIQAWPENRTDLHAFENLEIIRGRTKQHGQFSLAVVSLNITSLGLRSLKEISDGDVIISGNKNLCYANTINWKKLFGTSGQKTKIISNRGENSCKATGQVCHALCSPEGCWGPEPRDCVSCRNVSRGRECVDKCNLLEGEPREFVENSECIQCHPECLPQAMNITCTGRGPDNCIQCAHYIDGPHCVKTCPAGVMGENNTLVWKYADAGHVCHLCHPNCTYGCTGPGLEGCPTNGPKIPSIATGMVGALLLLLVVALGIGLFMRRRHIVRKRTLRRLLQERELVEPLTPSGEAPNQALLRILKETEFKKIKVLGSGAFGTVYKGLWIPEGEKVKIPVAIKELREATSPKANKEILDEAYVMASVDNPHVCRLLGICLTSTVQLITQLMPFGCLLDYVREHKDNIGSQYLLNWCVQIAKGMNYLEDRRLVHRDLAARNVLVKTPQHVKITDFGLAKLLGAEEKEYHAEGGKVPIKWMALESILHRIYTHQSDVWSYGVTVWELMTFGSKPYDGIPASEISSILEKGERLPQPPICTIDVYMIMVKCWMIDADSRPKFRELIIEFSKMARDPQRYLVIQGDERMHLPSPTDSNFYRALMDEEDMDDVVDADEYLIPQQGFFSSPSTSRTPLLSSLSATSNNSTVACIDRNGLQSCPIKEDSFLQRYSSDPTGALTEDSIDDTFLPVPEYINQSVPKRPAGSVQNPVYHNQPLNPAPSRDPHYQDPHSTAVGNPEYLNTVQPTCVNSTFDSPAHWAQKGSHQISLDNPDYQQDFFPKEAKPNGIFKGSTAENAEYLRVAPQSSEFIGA
Procedure, shortened: as §1

PC9 cells (EGFRex19del) = assay: PC9 proliferation assay (Cell Titer Glo); assay type: cell-based; details: Homo sapiens, PC-9, 72 h
Protocol: Cellular Data Description (PC9 Cells, EGFRex19del)
(§7) PC9 cells were purchased from ATCC. 400 PC9 cells per well were seeded in growth medium (DMEM, 10% FCS) in a 384-well plate (CORNING #3571). Seed reference plate for time zero determination on the same day. All plates were incubated overnight at 37° C. After 24 hours, test compound were added in 7-step dilution using HP Compound printer and incubated at 37° C. for 72 h. After 3 days, 30 μL/well CTG solution (Promega Cell Titer Glo solution; catalog # G755B and G756B) were added to each well, incubated for 30 minutes and the plate were read on PheraStar. Proliferation is calculated after subtracting time zero luminescence values from day 4 values and comparing to untreated wells. The IC50 values were determined using the four parameter fit.

[3] = biological target: Ba/F3-ERBB2-A775_G776insYVMA cells (Homo sapiens, UniProt P04626, DUP772-775, cells depend on it); assay: Ba/F3 cell survival assay, ERBB2 A775_G776insYVMA; assay type: cell-based; details: without IL-3, without EGF, 48 h; read-out: BA/F3 (ERBB2 A775_G776 insYVMA) IC50
Ba/F3-ERBB2-A775_G776insYVMA cells, sequence (P04626 with tags, fused parts or gaps DUP772-775): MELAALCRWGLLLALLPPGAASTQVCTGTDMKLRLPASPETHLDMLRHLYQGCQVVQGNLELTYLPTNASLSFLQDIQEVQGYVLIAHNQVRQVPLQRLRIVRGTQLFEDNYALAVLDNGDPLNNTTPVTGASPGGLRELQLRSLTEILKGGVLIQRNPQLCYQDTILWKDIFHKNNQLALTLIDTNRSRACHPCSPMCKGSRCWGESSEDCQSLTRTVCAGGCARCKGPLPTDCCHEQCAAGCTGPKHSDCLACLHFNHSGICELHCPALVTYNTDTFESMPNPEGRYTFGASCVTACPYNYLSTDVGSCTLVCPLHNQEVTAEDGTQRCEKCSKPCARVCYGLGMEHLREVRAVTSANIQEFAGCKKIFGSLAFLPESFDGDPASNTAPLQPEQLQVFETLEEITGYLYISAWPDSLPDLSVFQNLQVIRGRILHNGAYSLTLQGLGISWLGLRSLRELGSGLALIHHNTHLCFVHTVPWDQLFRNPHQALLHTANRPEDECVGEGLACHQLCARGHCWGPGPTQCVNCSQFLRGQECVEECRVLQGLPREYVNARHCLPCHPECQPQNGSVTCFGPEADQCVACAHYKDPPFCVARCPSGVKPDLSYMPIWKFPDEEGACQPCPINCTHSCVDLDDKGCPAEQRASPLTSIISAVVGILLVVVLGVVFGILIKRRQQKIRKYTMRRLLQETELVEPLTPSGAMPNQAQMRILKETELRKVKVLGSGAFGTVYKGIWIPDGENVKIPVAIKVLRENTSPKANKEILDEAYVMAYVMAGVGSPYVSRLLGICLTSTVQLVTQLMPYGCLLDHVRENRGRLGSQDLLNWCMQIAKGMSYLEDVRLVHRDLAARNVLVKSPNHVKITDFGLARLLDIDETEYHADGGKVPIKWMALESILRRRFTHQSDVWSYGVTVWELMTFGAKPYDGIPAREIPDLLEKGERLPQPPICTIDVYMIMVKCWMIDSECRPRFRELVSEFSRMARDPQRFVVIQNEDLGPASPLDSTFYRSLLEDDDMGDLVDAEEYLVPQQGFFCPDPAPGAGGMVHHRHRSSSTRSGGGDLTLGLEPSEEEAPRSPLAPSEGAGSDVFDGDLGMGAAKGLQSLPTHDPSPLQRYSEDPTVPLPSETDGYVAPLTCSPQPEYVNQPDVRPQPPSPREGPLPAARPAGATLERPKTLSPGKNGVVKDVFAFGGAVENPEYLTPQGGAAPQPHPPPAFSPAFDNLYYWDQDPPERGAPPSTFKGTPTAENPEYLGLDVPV
Protocol: as §2, §3, §4, §5, §6

[4] = tested on: HCC-827 cells (EGFRex19del); assay: HCC-827 proliferation assay (Cell Titer Glo); assay type: cell-based; details: Homo sapiens, HCC827, 72 h
Protocol: Cellular Data Description (HCC-827 Cells, EGFRex19del)
as §7, with “HCC-827 cells” for “PC9 cells”, “[…]” for “400 PC9”, “medium (RPM11640,” for “medium (DMEM,”, “wells.” for “wells. The IC50 values were determined using the four parameter fit.”
The IC50 values were determined using the four parameter fit.

Ba/F3-EGFR-insSVD cells, sequence (P00533 with tags, fused parts or gaps DUP768-770): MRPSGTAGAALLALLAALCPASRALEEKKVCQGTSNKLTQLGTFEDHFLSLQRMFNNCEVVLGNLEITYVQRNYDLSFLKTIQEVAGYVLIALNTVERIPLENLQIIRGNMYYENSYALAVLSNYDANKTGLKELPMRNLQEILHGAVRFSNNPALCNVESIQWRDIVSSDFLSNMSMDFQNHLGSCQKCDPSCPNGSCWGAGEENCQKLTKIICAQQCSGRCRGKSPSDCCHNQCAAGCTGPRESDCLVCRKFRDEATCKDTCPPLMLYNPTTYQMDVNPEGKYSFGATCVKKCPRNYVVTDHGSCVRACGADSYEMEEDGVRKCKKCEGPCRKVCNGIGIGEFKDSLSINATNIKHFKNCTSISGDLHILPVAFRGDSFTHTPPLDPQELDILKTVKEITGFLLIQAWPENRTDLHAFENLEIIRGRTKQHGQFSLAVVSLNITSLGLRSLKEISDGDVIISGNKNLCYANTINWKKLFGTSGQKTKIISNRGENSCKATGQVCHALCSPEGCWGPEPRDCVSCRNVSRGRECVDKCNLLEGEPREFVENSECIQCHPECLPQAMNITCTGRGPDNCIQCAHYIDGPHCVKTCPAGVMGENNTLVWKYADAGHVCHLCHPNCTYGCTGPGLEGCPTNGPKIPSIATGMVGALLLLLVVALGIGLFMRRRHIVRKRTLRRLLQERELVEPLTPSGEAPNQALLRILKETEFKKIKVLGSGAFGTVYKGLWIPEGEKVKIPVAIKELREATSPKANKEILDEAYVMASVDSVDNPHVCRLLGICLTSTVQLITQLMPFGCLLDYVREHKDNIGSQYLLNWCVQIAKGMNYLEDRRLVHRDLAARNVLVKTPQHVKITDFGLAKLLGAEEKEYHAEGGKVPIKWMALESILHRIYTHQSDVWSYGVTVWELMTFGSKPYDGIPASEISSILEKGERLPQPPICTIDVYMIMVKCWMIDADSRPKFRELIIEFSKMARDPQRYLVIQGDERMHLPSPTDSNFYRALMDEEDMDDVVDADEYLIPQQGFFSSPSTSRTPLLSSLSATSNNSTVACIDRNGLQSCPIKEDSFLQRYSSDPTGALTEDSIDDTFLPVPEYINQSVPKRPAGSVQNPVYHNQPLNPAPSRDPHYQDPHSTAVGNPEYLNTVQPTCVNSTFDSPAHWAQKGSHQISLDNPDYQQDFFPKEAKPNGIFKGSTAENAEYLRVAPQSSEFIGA

Structure (SMILES)	GI50 (Ba/F3-EGFR-insSVD cells) [nM]	mutEGFR (D770_N771insSVD) kinase assay IC50 [1] [pM]	GI50 (Ba/F3-EGFR L861Q cells) [nM]	GI50 (Ba/F3-EGFR-L858R cells) [nM]	IC50 (Bub1) [µM]	GI50 [2] [nM]	GI50 (Ba/F3-EGFR-WT cells) [nM]	IC50 (PC9 cells (EGFRex19del)) [nM]	GI50 [3] [nM]	IC50 [4] [nM]
CCc1c(Cl)cccc1Nc1c(-c2ccncc2OCC2CN(C)CCO2)[nH]c2c1C(=O)NCC2 (centres unmarked) [Example 29, 3-(3-chloro-2-ethylanilino)-2-{3-[(4-methylmorpholin-2-yl)methoxy]pyridin-4-yl}-1,5,6,7-tetrahydro-4H-pyrrolo[3,2-c]pyridin-4-one]	33.6	547	16.2	0.964	17.2	0.332	621	–	–	–
COc1c(F)cccc1Nc1c(-c2ccncc2OCC2COCCO2)[nH]c2c1C(=O)NCC2 (single isomer, unassigned) [Example 6, 2-{3-[(1,4-dioxan-2-yl)methoxy]pyridin-4-yl}-3-(3-fluoro-2-methoxyanilino)-1,5,6,7-tetrahydro-4H-pyrrolo[3,2-c]pyridin-4-one]	50.3	100	–	–	6.31	–	785	1.94	31.8	< 3
